Several values for one entry are separate records, joined by “and”; a condition that tells them apart may be missing. Equal entries are not always repeated.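 In this assay, cells in 96-well plates receive the compound at five concentrations for 48 hours. Endpoints are linearly interpolated between the surrounding concentrations. The concentration for 50% growth inhibition is given as GI50. Definition used: TGI = concentration required for complete inhibition of growth.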
Legend:
Assay in all cases: growth of human tumour cells (NCI), 48 h
BT-549 breast = test system: BT-549 breast
CAKI-1 renal = test system: CAKI-1 renal
HOP-92 NSCLC = test system: HOP-92 NSCLC
HT29 colon = test system: HT29 colon
NCI-H23 lung = test system: NCI-H23 lung
NCI-H460 lung = test system: NCI-H460 lung
RXF 393 renal = test system: RXF 393 renal
SF-539 CNS = test system: SF-539 CNS
SK-MEL-5 melanoma = test system: SK-MEL-5 melanoma
U251 CNS = test system: U251 CNS

| Compound | GI50 (BT-549 breast) [µM] | TGI (BT-549 breast) [µM] | GI50 (CAKI-1 renal) [µM] | TGI (CAKI-1 renal) | GI50 (HOP-92 NSCLC) [µM] | TGI (HOP-92 NSCLC) | GI50 (HT29 colon) [µM] | TGI (HT29 colon) | GI50 (NCI-H23 lung) [µM] | TGI (NCI-H23 lung) | GI50 (NCI-H460 lung) [µM] | TGI (NCI-H460 lung) | GI50 (RXF 393 renal) [µM] | TGI (RXF 393 renal) | GI50 (SF-539 CNS) [µM] | TGI (SF-539 CNS) [µM] | GI50 (SK-MEL-5 melanoma) [µM] | TGI (SK-MEL-5 melanoma) | GI50 (U251 CNS) [µM] | TGI (U251 CNS) [µM] |
| --- | --- | --- | --- | --- | --- | --- | --- | --- | --- | --- | --- | --- | --- | --- | --- | --- | --- | --- | --- | --- |
| C[As](C)SCC(COC(=O)c1ccccc1)OC(=O)c1ccccc1 (stereo unspecified) | 1.01 | 6.4 | < 0.0181 | 0.0499 µM | 0.216 | 1.74 µM | 0.302 | 2.26 µM | 0.05 | 0.125 µM | 2.21 | 12.1 µM | < 0.0169 | 0.0881 µM | 0.271 | 0.775 | 0.015 | 0.0678 µM | 1.71 | 6.67 |
| CN(C)c1ccc(/C=C/C(=O)c2ccc(Nc3nc(Nc4ccc(F)cc4)nc(Nc4ccc(Cl)cc4)n3)cc2)cc1 | 7.39 | 55.7 | 14.6 | > 100 µM | – | – | 5.18 | 38.9 µM | 5.95 | 39.5 µM | 3.94 | 15.6 µM | 1.92 | 6.1 µM | 9.58 | 27.2 | 2 | 10.9 µM | 7.66 | 70.6 |
| COc1ccc(N2CCN(CC(=O)N3CCN(c4nnc(-c5ccc(Cl)cc5)c(-c5ccc(Cl)cc5)n4)CC3)CC2)cc1 | 4.83 | > 100 | 16.6 | 82.7 µM | 11.1 | 30.5 µM | 4.03 | 43.2 µM | 35.9 | > 100 µM | 7 | > 100 µM | 3.98 | 23.7 µM | 3.66 | 17.3 | 5.52 | 52.4 µM | 10.6 | > 100 |
| COc1cccc2c1C(=N)c1c(O)c3c(c(O)c1C2=O)C[C@@](O)(C(C)=O)C[C@@H]3OC1CC(N)C(O)C(C)O1 (stereo partly specified) | 1.66 | 16.2 | – | 1.37 µM and 1.03 µM and 4.86 µM | – | 2.71 µM and 3.58 µM | – | 7.19 µM and 4.43 µM and 1.71 µM | – | 0.607 µM and 1.62 µM and 1.2 µM | – | 2.01 µM and 2.11 µM and 0.239 µM | – | 2.95 µM and 3.8 µM and 0.872 µM | – | – | – | 1.55 µM and 1.74 µM and 1.98 µM | – | – |
| CNCc1ccc(C)c(NC(=O)c2ccc(Nc3nc(-c4ccccc4)c4ccccc4n3)cc2)c1 | 1.84 | 3.37 | 1.87 | 3.57 µM | 0.687 | 3.24 µM | 1.86 | 3.98 µM | 1.87 | 3.71 µM | 1.8 | 3.38 µM | 1.51 | 2.95 µM | 1.82 | 3.46 | 1.71 | 3.12 µM | 1.54 | 2.96 |
| CC[N+]1(C)CCC(O)(/C=C/c2ccccc2)C(C(=O)/C=C/c2ccccc2)C1 (stereo unspecified) | – | 34.5 | – | 3.42 µM | – | 31.4 µM | – | 27.5 µM | – | 35 µM | – | 43.5 µM | – | 19.7 µM | – | 19 | – | 32.7 µM | – | 22.5 |
| N#Cc1c(-c2ccc(Cl)cc2)n([O-])c2ccccc2[n+]1=O | 23.2 | 52.3 | – | – | 1.61 | 3.24 µM | 17.2 | 42.2 µM | 16.2 | 31.3 µM | 18.5 | 42.8 µM | 11 | 33.2 µM | 17.9 | 36 | 15.9 | 31.7 µM | 4.37 | 17.1 |
| NC(=O)NOCC1NC(=O)NC1=O (stereo unspecified) | – | > 100 | – | > 100 µM | – | > 100 µM | – | > 100 µM | – | > 100 µM | – | > 100 µM | – | > 100 µM | – | > 100 | – | > 100 µM | – | > 100 |
| COc1ccc(-c2nccn2-c2cc(OC)c(OC)c(OC)c2)cc1 | > 32.1 | > 100 | 1.22 | > 77.1 µM | 7.01 | > 100 µM | 1.05 | > 46.2 µM | 9.09 | > 100 µM | 1.6 | > 100 µM | 1.12 | 26.6 µM | 5.78 | 24.4 | 0.758 | > 69.5 µM | 3.85 | > 100 |
| CCOC(=O)c1ccccc1NC(c1ccccc1)c1ccc2cccnc2c1O (stereo unspecified) | 4.25 | 16.7 | 3.05 | > 100 µM | 7.98 | > 100 µM | 4.58 | > 100 µM | 4.22 | > 100 µM | 2.82 | 78.4 µM | 3.11 | 23.2 µM | 2.52 | 10.2 | 2.04 | 6.74 µM | 2.75 | 16.5 |
| COc1ccc(/C=C2\CN(Cc3cn(CCCNc4ccnc5cc(Cl)ccc45)nn3)C/C(=C\c3ccc(OC)cc3)C2=O)cc1 | 3.78 | 12.9 | – | – | 0.962 | 15.9 µM | 1.82 | 6.38 µM | 10.8 | 34.5 µM | 1.86 | 3.79 µM | 5.48 | 18.9 µM | 13.9 | 26.8 | 10.5 | 22.3 µM | 5.53 | 18.9 |
| C=CC(=O)N1CC[C@@H](Oc2nc(Nc3ccc(N4CCC(N5CCN(C)CC5)CC4)cc3)c(C(N)=O)nc2CC)C1 | > 100 | > 100 | – | – | > 100 | > 100 µM | > 100 | > 100 µM | > 100 | > 100 µM | > 100 | > 100 µM | > 100 | > 100 µM | > 100 | > 100 | > 100 | > 100 µM | > 100 | > 100 |
| COc1ccc(/C(C)=C(\c2ccc(Cl)cc2)c2ccc(OCCN3CCCCC3)cc2)cc1F | 3.11 | 7.47 | 3.14 | 6.48 µM | 2.5 | 6.08 µM | 0.65 | > 16.7 µM | 2.78 | 7.09 µM | 2.59 | 5.38 µM | 2.84 | 5.75 µM | 2.42 | 4.67 | 2.76 | 5.1 µM | 2.68 | 6.51 |

Source: PubChem BioAssay (NCI)
